A word on the IC50: it is the point on the concentration scale where inhibition reaches its midpoint. Usually Ki stands for a dissociation constant, usually derived from enzyme kinetics or from competition with a known ligand.

Each structure is given as a SMILES string. Calls of active or inactive are those of the source. No cut-off for these calls is given here.

For experiment [1], the target named is T1, Beta-secretase 1 (Homo sapiens, UniProt P56817). The experiment can be described thus: Inhibition of human BACE1 expressed in HEK293 cells assessed as reduction in soluble APPalpha level after 4 hrs by Western blot analysis. The format is cell-based. For orientation: Immunoblotting shows a protein as a band on a membrane.
Experiment [2] concerns the target T1, Beta-secretase 1. The experiment can be described thus: Inhibition of human BACE1 expressed in HEK293 cells assessed as reduction in soluble APPbeta level after 4 hrs by Western blot analysis. The format is cell-based. Details: concentration or dose not given beside the values.
Experiment [3] deals with T1, Beta-secretase 1. The experiment can be described thus: Inhibition of human BACE1.

T1 sequence (P56817 whole entry): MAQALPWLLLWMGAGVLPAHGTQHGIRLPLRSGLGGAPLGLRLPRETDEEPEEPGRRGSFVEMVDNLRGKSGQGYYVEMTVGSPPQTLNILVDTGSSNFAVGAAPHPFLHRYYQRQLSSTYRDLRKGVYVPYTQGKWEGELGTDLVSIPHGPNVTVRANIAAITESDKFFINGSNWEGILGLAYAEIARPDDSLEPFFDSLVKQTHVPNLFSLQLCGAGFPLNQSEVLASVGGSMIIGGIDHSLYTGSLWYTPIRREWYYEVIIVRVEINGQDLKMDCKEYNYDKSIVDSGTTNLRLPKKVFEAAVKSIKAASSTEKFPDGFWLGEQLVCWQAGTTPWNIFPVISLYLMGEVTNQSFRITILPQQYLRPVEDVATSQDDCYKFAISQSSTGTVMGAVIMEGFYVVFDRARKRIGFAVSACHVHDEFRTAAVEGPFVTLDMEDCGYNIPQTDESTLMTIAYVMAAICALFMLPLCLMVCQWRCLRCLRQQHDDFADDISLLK

With `C=C(C)[C@H](CC=C(C)C)Cc1c(O)cc(O)c2c1O[C@H](c1ccc(O)cc1OC)CC2=O` [LEACHIANONE A], the Activity entry in experiment [1] is “Dose-dependent effect”. Also, the Activity in experiment [2] amounted to 40.7%. In experiment [3], this molecule came in with an IC50 of 8.4 µM and a Ki of 3.9 µM.

As for `C=C(C)C(CC=C(C)C)Cc1c(O)cc(OC)c2c1O[C@H](c1ccc(O)cc1O)CC2=O` (stereo partly drawn) [KURARINONE], the outcome in experiment [1] was Active. The Activity in experiment [2] amounted to 51.9%. In experiment [3], this molecule yielded an IC50 of 3.3 µM and an inhibition constant Ki of 7.2 µM.

As to `C=C(C)[C@H](CC=C(C)C)Cc1c(O)cc(O)c2c1O[C@H](c1ccc(O)cc1O)CC2=O` [SOPHORAFLAVANONE G], the result in experiment [1] was Active. The Activity in experiment [2] is 56%. In experiment [3], this molecule had a half-inhibitory concentration (IC50) of 5.2 µM and an inhibition constant (Ki) of 1.1 µM.

Take `C=C(C)[C@H](CC=C(C)C)Cc1c(O)cc(OC)c2c1O[C@H](c1ccc(O)cc1OC)CC2=O`: the outcome in experiment [1] was Active. In experiment [2], the Activity was 51.1%. In experiment [3], this molecule showed an IC50 of 6.7 µM and an inhibitory constant (Ki) of 10.6 µM.

In experiment [3], `COc1cc(O)c(CC=C(C)C)c2c1C(=O)CC(c1ccc(O)cc1)O2` (stereo not drawn) [ISOXANTHOHUMOL] displayed a 50% inhibitory concentration (IC50) of 27.7 µM.

As to `C=C(C)[C@H](CC=C(C)C)Cc1c(O)cc(O)c2c1O[C@H](c1ccccc1O)CC2=O` [KUSHENOL A], the result in experiment [1] was Active. The Activity in experiment [2] stood at 61.8%. For the same molecule, in experiment [3], the midpoint of inhibition, the IC50, lay at 2.6 µM and the inhibition constant Ki is 3 µM.

In the case of `C=C(C)[C@H](CCC(C)(C)O)Cc1c(O)cc(O)c2c1O[C@H](c1ccccc1O)CC2=O` [KUSHENOL T], the IC50 in experiment [3] was 36.8 µM.

Take `C=C(C)[C@H](CCC(C)(C)O)Cc1c(O)cc(OC)c2c1O[C@H](c1ccc(O)cc1O)CC2=O` [KURARINOL]: the half-inhibitory concentration (IC50) in experiment [3] was determined as 39.2 µM.

The values are drawn from ChEMBL document CHEMBL1155037, “BACE1 inhibitory effects of lavandulyl flavanones from Sophora flavescens” (Bioorg Med Chem, 2008).
